ChEMBL document CHEMBL4229538, “Design, synthesis and structure-activity relationship of diaryl-ureas with novel isoxazol[3,4-b]pyridine-3-amino-structure as multi-target inhibitors against receptor tyrosine kinase” (Bioorg Med Chem, 2018)

Columns and labels:
[1] = test system: MCF7; experiment: Antiproliferative activity against human MCF7 cells after 72 hrs by cell titer glo-based fluorescence assay; conditions: MCF7, 72 h
[2] = test system: MV4-11; experiment: Antiproliferative activity against human MV4-11 cells after 72 hrs by cell titer glo-based fluorescence assay; conditions: MV4-11, 72 h
[3] = test system: HUVEC; experiment: Antiproliferative activity against HUVEC after 72 hrs by cell titer glo-based fluorescence assay; conditions: Homo sapiens
[4] = target: Platelet-derived growth factor receptor beta (Homo sapiens, UniProt P09619); experiment: Inhibition of human PDGFRbeta using biotin labeled substrate after 1 hr by HTFR assay
Chain of Platelet-derived growth factor receptor beta (P09619 whole entry): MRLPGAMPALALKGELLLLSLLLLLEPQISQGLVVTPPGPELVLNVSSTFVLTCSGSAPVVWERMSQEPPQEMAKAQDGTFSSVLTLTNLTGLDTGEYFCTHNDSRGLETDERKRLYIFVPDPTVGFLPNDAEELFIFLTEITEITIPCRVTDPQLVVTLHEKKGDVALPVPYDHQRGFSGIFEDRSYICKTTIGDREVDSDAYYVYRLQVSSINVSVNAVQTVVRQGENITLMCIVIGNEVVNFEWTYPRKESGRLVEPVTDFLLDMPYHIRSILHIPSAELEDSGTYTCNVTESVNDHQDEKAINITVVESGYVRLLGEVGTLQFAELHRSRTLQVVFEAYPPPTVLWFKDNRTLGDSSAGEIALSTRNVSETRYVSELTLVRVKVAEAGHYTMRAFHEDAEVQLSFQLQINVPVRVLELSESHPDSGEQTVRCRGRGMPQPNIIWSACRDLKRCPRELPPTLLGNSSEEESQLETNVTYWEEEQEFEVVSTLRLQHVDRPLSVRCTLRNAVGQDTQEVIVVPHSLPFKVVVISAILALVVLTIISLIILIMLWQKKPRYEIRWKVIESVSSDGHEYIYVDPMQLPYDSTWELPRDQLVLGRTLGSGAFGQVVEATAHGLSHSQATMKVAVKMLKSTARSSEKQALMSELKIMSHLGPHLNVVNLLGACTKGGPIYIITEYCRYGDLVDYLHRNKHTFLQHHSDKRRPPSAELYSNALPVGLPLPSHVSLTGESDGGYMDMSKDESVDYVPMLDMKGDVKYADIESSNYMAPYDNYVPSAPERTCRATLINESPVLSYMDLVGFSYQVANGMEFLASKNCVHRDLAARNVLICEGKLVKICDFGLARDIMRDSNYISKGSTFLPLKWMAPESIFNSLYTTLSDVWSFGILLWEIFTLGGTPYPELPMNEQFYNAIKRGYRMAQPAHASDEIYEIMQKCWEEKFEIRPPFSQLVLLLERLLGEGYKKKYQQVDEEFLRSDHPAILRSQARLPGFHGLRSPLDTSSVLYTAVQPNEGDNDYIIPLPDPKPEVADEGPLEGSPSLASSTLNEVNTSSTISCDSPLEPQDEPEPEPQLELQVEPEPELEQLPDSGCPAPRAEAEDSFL

[5] = target: Vascular endothelial growth factor receptor 2 (Homo sapiens, UniProt P35968)
Chain of Vascular endothelial growth factor receptor 2 (P35968 whole entry): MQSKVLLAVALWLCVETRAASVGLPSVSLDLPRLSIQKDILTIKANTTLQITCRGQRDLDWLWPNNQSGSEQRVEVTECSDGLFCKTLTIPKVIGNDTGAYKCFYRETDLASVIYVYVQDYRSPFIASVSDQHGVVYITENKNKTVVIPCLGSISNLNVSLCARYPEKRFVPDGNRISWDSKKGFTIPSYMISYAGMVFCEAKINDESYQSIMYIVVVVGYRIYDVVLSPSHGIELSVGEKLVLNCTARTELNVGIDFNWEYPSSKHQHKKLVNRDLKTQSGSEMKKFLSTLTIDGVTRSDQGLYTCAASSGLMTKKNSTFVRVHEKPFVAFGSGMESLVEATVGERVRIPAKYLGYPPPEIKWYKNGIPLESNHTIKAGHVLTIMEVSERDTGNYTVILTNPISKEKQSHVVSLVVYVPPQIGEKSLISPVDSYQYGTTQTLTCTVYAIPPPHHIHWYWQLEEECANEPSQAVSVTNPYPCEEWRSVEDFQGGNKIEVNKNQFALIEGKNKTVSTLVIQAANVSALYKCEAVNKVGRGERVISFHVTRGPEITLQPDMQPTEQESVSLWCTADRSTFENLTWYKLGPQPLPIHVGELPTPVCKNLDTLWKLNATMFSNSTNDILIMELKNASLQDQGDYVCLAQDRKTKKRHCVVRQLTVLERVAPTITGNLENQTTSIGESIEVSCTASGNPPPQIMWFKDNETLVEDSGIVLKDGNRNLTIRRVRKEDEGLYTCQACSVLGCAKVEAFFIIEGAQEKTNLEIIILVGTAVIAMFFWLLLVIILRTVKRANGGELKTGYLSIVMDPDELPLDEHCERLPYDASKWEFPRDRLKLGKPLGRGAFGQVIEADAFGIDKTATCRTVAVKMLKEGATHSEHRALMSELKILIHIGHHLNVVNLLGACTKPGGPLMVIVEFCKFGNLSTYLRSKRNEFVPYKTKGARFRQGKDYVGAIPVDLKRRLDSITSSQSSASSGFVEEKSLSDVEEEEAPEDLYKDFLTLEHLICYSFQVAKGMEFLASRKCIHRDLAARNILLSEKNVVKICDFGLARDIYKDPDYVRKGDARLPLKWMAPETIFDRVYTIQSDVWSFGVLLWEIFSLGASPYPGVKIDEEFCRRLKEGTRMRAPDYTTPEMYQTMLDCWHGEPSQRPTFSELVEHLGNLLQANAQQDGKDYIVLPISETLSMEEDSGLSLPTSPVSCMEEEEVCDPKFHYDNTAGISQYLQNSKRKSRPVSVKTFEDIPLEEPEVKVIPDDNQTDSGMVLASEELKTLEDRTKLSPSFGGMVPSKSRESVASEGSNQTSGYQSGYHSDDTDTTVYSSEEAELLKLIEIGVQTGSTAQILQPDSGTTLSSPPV
Description: Inhibition of human KDR using biotin labeled substrate after 1 hr by HTFR assay

[6] = target: T1, Receptor-type tyrosine-protein kinase FLT3 (Homo sapiens, UniProt P36888)
T1 sequence (P36888 whole entry): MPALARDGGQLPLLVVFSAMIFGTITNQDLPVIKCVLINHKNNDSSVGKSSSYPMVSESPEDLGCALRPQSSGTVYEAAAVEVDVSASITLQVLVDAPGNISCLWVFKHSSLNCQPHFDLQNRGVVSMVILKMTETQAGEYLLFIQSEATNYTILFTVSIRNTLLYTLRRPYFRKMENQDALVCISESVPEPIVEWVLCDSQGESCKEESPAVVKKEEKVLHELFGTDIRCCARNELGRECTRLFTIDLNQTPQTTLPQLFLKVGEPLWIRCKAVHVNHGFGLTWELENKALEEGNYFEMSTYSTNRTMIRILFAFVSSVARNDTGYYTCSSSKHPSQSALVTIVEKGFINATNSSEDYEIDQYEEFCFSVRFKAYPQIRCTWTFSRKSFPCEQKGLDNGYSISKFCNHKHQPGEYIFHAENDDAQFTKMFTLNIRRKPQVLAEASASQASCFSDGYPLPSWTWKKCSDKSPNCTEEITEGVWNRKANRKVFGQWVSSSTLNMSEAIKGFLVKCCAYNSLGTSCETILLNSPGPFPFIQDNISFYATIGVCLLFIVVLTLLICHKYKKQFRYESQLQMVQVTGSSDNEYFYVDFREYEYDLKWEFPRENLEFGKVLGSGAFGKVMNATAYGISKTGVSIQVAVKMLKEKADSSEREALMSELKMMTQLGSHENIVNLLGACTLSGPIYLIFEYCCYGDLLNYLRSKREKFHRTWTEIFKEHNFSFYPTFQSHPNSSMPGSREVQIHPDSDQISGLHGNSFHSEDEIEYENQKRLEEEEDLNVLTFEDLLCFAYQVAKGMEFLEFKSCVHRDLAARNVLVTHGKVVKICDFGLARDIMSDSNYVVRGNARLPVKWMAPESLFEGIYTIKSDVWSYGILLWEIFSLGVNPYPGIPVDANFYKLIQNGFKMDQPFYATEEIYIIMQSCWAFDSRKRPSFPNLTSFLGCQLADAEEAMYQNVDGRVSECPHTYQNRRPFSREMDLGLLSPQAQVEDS
Description: Inhibition of human FLT3 using biotin labeled substrate after 1 hr by HTFR assay

Structure (SMILES): Cc1cc(-c2ccc(NC(=O)Nc3cccc(Cl)c3)cc2)c2c(N)onc2n1
- IC50 [1]: 39.5 µM
- IC50 [2]: 0.54 µM
- IC50 [3]: 15.2 µM
- IC50 ([4]; read-out: IC50): 0.04 µM

Structure (SMILES): Cc1cccc(NC(=O)Nc2ccc(-c3cc(-c4ccccc4)nc4noc(N)c34)cc2)c1
- IC50 ([4]; read-out: IC50): 1.23 µM

Structure (SMILES): C=C(CN1CCOCC1)C(=O)Nc1ccc(NC(=O)Nc2ccc(-c3cc(C)nc4noc(N)c34)cc2)cc1C
- IC50 ([4]; read-out: IC50): 0.51 µM

Structure (SMILES): COc1ccc(NC(=O)Nc2ccc(-c3cc(-c4ccccc4)nc4noc(N)c34)cc2)cc1
- IC50 [4]: Not Active
- IC50 [5]: Not Active

Structure (SMILES): C/C=C\C(=O)Nc1ccc(NC(=O)Nc2ccc(-c3cc(C)nc4noc(N)c34)cc2)cc1C
- IC50 [4]: Not Active
- IC50 [5]: Not Active

Structure (SMILES): Cc1cc(-c2ccc(NC(=O)Nc3cccc(C(F)(F)F)c3)cc2)c2c(N)onc2n1
- IC50 [1]: 37.4 µM
- IC50 [2]: 0.61 µM
- IC50 [3]: 7.95 µM
- IC50 ([4]; read-out: IC50): 0.02 µM

Structure (SMILES): Nc1onc2nc(-c3ccccc3)cc(-c3ccc(NC(=O)Nc4cccc(Cl)c4)cc3)c12
- IC50 ([4]; read-out: IC50): 2.23 µM

Structure (SMILES): Nc1onc2nc(-c3ccccc3)cc(-c3ccc(NC(=O)Nc4ccc(Cl)c(C(F)(F)F)c4)cc3)c12
- IC50 ([4]; read-out: IC50): 0.29 µM

Structure (SMILES): Cc1cccc(NC(=O)Nc2ccc(-c3cc(C)nc4noc(N)c34)cc2)c1
- IC50 [1]: 10.5 µM
- IC50 [2]: 0.12 µM
- IC50 [3]: 11.7 µM
- IC50 ([4]; read-out: IC50): 0.008 µM

Structure (SMILES): Nc1onc2nc(-c3ccccc3)cc(-c3ccc(NC(=O)Nc4cccc(F)c4)cc3)c12
- IC50 ([4]; read-out: IC50): 3.25 µM

Structure (SMILES): C/C=C\C(=O)Nc1ccc(NC(=O)Nc2ccc(-c3cc(C)nc4noc(N)c34)cc2)cc1
- IC50 [4]: Not Active
- IC50 [5]: Not Active

Structure (SMILES): Nc1onc2nc(-c3ccccc3)cc(-c3ccc(NC(=O)Nc4ccc(F)cc4)cc3)c12
- IC50 ([4]; read-out: IC50): 3.78 µM

Structure (SMILES): Cc1ccc(NC(=O)Nc2ccc(-c3cc(-c4ccccc4)nc4noc(N)c34)cc2)cc1
- IC50 ([4]; read-out: IC50): 1.26 µM
- IC50 [5]: Not Active

Structure (SMILES): Nc1onc2nc(-c3ccccc3)cc(-c3ccc(NC(=O)Nc4ccccc4F)cc3)c12
- IC50 [4]: Not Active
- IC50 [5]: Not Active
- IC50 [6]: Not Active

Structure (SMILES): Cc1cc(-c2ccc(NC(=O)Nc3ccc(Cl)c(C(F)(F)F)c3)cc2)c2c(N)onc2n1
- IC50 [1]: 28.8 µM
- IC50 [2]: 0.34 µM
- IC50 [3]: 12.6 µM
- IC50 ([4]; read-out: IC50): 0.02 µM

Structure (SMILES): C=CC(=O)Nc1ccc(NC(=O)Nc2ccc(-c3cc(-c4ccccc4)nc4noc(N)c34)cc2)cc1
- IC50 [4]: Not Active
- IC50 [5]: Not Active
- IC50 [6]: Not Active

Structure (SMILES): Nc1onc2nc(-c3ccccc3)cc(-c3ccc(NC(=O)Nc4ccccc4)cc3)c12
- IC50 ([4]; read-out: IC50): 3.52 µM
- IC50 [5]: Not Active

Structure (SMILES): Cc1cc(-c2ccc(NC(=O)Nc3ccccc3Cl)cc2)c2c(N)onc2n1
- IC50 ([4]; read-out: IC50): 0.82 µM

Structure (SMILES): Cc1ccc(F)c(NC(=O)Nc2ccc(-c3cccc4[nH]nc(N)c34)cc2)c1 [LINIFANIB]
- IC50 [1]: 17 µM
- IC50 [2]: 0.69 µM
- IC50 [3]: 40.1 µM
